Several values for one entry are separate records, joined by “and”; a condition that tells them apart may be missing. Equal values may be shown once. Blank lines part the entries; values can stand above or below the molecule they belong to.
Tests used:
[1] = UV-Vis absorbance spectra; format: physicochemical; conditions: 25 μM in HBSS buffer with 1% DMSO; for λmax cis: cis-isomer; for λmax trans: trans-isomer
Experimental: (§1) Solubility in buffer was explored for all compounds using nephelometry ([Bevan and Lloyd, 2000]) and these studies indicate good solubility of all azobenzene photoswiches up to at least 100 μM (Figure S1). […] For all compounds, 360 nm induces a large change in absorbance spectrum compared with the non-illuminated (dark) compounds (Table 1, Figure 2A, and S1), indicating photoisomerization to the cis-isomer. The absorbance peak (λmax) of Opto-prop-1-3 ranged between 319 and 347 nm for the trans-isomers and between 423 and 429 for the cis-isomers (Table 1), as is typical for azobenzene compounds ([Hauwert et al., 2018]). […] The photochemical conversions were determined by continuous illumination of the Opto-prop compounds with near UV-light (360 ± 20 nm) as 10-mM solutions in DMSO. Based on LCMS analysis, it was observed that all compounds obtained a high level of conversion to the cis-isomer with a photostationary state (PSS) of >88 area % cis-isomer (i.e. PSScis; Table 1). Subsequent back-switching to PSStrans with 434 nm maintained 22–29 area % cis-isomer (Table 1). The thermal relaxation of the PSScis state of the photoswitchable ligands was monitored over time by measuring absorbance at 254 nm. Only minor thermal relaxation to the trans-isomer could be detected at 20°C (not shown). An estimate of the relaxation rate at 20 °C was determined using a method by Priimagi et al. ([Ahmed et al., 2017]), which was performed in Hanks’ balanced salt solution (HBSS) using increased temperatures to enhance the speed of thermal relaxation. The Opto-prop ligands are all very stable as cis-isomer after illumination, with thermal relaxation half-lives of >10 days at 20 °C (See Table 1 and Figure S1).
UV-Vis spectra were obtained using a Thermo-scientific Evolution 201 PC spectrophotometer. Illumination was executed using a Sutter instruments Lambda LS with a 300 Watt full-spectrum lamp connected to a Sutter instruments Lambda 10-3 optical filter changer equipped with 360 ± 20 nm, 400 ± 5 nm, 434 ± 9 nm and 460 ± 5 nm filters. The light intensity is 0.93 mW/mm^2 using the 360 ± 20 nm filter, 0.22 mW/mm^2 using the 400 ± 5 nm filter, 0.79 mW/mm^2 for the 434 ± 9 nm filter and 0.26 mW/mm^2 for the 460 ± 5 nm filter as measured using a Thorlabs PM16-401 power meter.
For the determination of the UV-Vis spectra shown in Figure 2A, compounds (25 μM in 1% DMSO/HBSS buffer) were illuminated in Hellma Suprasil quartz 114-QS cuvettes with either a 360, 400, 434 or 460 nm filter for the indicated time. For the determination of PSScis and PSStrans states by UV spectroscopy (Figures S1D–S1F), a solution of the compound in 1% DMSO/HBSS buffer (25 μM) in a vial was illuminated to PSS cis with 360 nm (typically 4–5 min) and subsequently to PSS trans with 434 nm (typically 2–5 min). UV spectra were recorded.

[2] = PSScis and PSStrans by LC analysis; format: physicochemical; conditions: for PSScis (% cis-isomer): 10 mM in DMSO after illumination with 360 nm; for PSScis (% cis-isomer) / PSStrans (% cis-isomer): LCMS area at isosbestic wavelength; for PSStrans (% cis-isomer): 10 mM in DMSO, 360 nm then 434 nm
Experimental: as §1
For the determination of PSScis and PSStrans values by LC analysis (Table 1), a solution of the compound in DMSO (10 mM) was illuminated to PSScis with 360 nm and subsequently to PSStrans with 434 nm. PSS aliquots were withdrawn, diluted with MeCN and subjected to LCMS analysis with the corresponding isosbestic points wavelength: 278, 263 and 308 nm for Opto-prop-1-3, respectively.

[3] = Cis-to-trans thermal relaxation, Arrhenius extrapolation; format: physicochemical; conditions: PSScis sample 25 μM in HBSS buffer with 1% DMSO; Arrhenius extrapolation to 20 °C
Experimental: as §1
Cis-to-trans thermal relaxations were performed in the dark at 25 μM of the PSS360 state of the Opto-prop-1, -2 or -3 in HBSS buffer with 1% DMSO at various temperatures (60°C, 70°C and 80°C). Absorbance was repeatedly measured at 320, 320 and 347 nm for Opto-prop-1, -2 or -3, respectively, with 60 s intervals.

β1-AR [4] = target: T1, β1-AR (Homo sapiens, UniProt P08588); experiment: [3H]DHA radioligand displacement on membranes of HEK293T cells expressing β1-AR; conditions: for fold Ki trans vs PSScis at β1-AR: fold difference between Ki of trans and Ki at PSScis; for Active state at β1-AR: isomer state with higher affinity
Experimental: (§5) Membranes of HEK293T-cells transiently expressing the receptor of interest were co-incubated with the tritiated β1/β2-AR antagonist dihydroalprenolol ([^3H]DHA, Figure S2 depicts saturation binding experiments), together with increasing concentrations of the competing unlabeled ligand.
(§6) Two million HEK293T cells were seeded in a 10cm^2 dish and were transiently transfected the next day with 1 μg human β1-AR or the β2-AR plasmid DNA, 4 μg empty pcDEF3 plasmid DNA and 30 μg linear 25 kDa polyethyleneimine (PEI; Polysciences Warrington, USA) in a 150 mM NaCl solution. […] Two days after transfection, cells were resuspended and washed (3 times) with PBS and pelleted by centrifugation steps at 1500 g. After the final centrifugation step, cell pellets were reconstituted into ice-cold Tris-HCl buffer (15 mM, supplemented with 0.3 mM EDTA and 2 mM MgCl2 at pH7.4) and dounce-homogenised by plunging the pestle 10 times with 1,500 rpm (Tamson, the Netherlands). The homogenates were frozen and thawed twice using liquid nitrogen, after which the membranes were isolated using an ultra-centrifuge L70 at 40,000 g (Beckman Coulter, USA). Cell pellets were then washed and reconstituted in ice-cold 20 mM Tris-HCl buffer supplemented with 250 mM Sucrose at pH 7.4. Finally, the membrane samples where homogenized using a 23-gauge needle, snap-frozen with liquid nitrogen and stored until further experimentation at −80 °C. The protein content was determined using a BCA protein assay kit (Thermo Scientific, USA).
(§7) On the day of the experiment 0.25–0.5 μg membranes expressing either the β1-AR or the β2-AR, were co-incubated with [^3H]DHA (Perkin Elmer, USA) and increasing concentrations unlabeled ligand in HBSS buffer (Thermo Scientific, with Ca^2+ and Mg^2+) supplemented with 0.1% BSA for 1 h at 25 °C under gentile agitation. Either a 4 nM or 1 nM concentration of [^3H]DHA was used in combination with membranes expressing either the β1-AR or β2-AR, respectively. Binding reactions were terminated by filtration over a PEI coated GF/C filter (Perkin Elmer) using ice-cold 50 mM Tris-HCl buffer with 500 mM NaCl at pH 7.4. GF/C plates were dried at 52 °C and filter bound [^3H]DHA was quantified by adding 25 μL/well Microscint-O scintillation liquid and counting luminescence using the Wallac Microbeta counter, as described before.
(§8) IC50 values were determined by fitting the concentration-dependent displacement of [^3H]DHA by unlabeled ligands, with a three-parameter sigmoidal model in GraphPad Prism. […] Competition binding graphs represent the pooled data of ≥3 experiments, normalized to the fitted top and bottom of the reference sigmoidal displacement curve of unlabeled DHA.

β2-AR [5] = target: T2, β2-AR (Homo sapiens, UniProt P07550); experiment: [3H]DHA radioligand displacement on membranes of HEK293T cells expressing β2-AR; conditions: for fold Ki trans vs PSScis at β2-AR: fold difference between Ki of trans and Ki at PSScis; for Active state at β2-AR: isomer state with higher affinity; for Ki: β2-AR; for selectivity in binding β2-AR over β1-AR: cis-isomer (PSScis)
Target sequence in this assay (P07550 whole entry): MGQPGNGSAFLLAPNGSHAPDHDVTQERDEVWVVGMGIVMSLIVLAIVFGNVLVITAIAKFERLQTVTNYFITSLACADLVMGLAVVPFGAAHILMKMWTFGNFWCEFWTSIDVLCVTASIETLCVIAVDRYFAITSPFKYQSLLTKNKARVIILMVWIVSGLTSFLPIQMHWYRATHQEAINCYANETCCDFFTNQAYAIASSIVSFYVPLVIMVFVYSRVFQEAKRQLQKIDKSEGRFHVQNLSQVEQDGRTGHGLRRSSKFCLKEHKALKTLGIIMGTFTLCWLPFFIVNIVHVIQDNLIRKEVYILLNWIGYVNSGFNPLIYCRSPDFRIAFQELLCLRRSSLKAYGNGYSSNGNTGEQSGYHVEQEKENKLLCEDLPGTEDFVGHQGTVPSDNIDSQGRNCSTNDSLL
Experimental: as §5, §6, §7, §8

β1-AR [6] = target: T1, β1-AR; experiment: Saturation binding of [3H]dihydroalprenolol, β1-AR membranes; parameters: host or cells: HEK293T, transient; membranes; conditions: HEK293T membranes
Experimental: (§2) Figure S2. Saturation binding of [3H]dihydroalprenolol t o the β1 and β2 adrenergic rec eptors, related to Figure 3. Increasing concentrations [3H]dihydroalprenolol were incubated with membranes of HEK293T cells transiently expressing either the β1-AR (A) or β2-AR (B). Both the radioligand concentration and bound radioligand were quantified by scintillation counting. Data represent the po o led m ean ± SD of 4 experiments. Binding affinities (pKd) of [3H]dihydroalprenolol were determined by fitting the data in each individual experiment. […]
(§3) and a Bmax value of 33 ± 19 pmol/mg at membranes expressing the β2-AR.
(§4) (1 picture or pasted object on this page, not shown here)

β2-AR [7] = target: T2, β2-AR; experiment: Saturation binding of [3H]dihydroalprenolol, β2-AR membranes; parameters: host or cells: HEK293T, transient; membranes; conditions: HEK293T membranes
Experimental: as §2, §3, §4
Target sequence in this assay (P07550 whole entry): as above

[8] = tested on: isolated adult rat cardiomyocytes; experiment: Contractility (sarcomere shortening) of paced isolated cardiomyocytes; format: cell-based; conditions: paced at 2 Hz; for effect on isoprenaline-enhanced contractility: 1 μM with 15 nM isoprenaline
Experimental: To evaluate Opto-prop-2 in a relevant biological system with endogenous levels of the native receptor proteins, it was tested using isolated adult rat cardiomyocytes. Cardiomyocytes were paced at 2Hz, inducing contractions that were quantified by measuring the sarcomere length over time (Figure 6A). […] This enhanced contractility was attenuated by co-incubating with cis-Opto-prop-2 (magenta line) but not by trans-Opto-prop-2 (teal line) at 1 μM concentrations.
Intact adult cardiomyocytes were isolated from 3 adult wild-type Wistar rats weighing 200–250 g as described previously. ([Nollet et al., 2020]; [van Deel et al., 2017]) Briefly, rats were sedated and anesthesized by isoflurane inhalation. The heart was removed and perfused in a Langendorff setup with Liberase TM (Roche) digestive enzymes and the left ventricle was consequently cut into small pieces and resuspended in stopping buffer. This mixture was passed over a 300 μm nylon mesh filter, isolated cells in the filtrate were resuspended in buffer containing 1mM CaCl2. Cells were suspended in plating medium composed of Medium 199 (Lonza), 1% penicillin/streptomycin and 5% bovine serum and plated on a laminin coated dish (10 μg/mL, Sigma-Aldrich). The cells were incubated for 1 h at 37 °C in humidified air with 5% CO2 to let them attach to the coated dish. Afterwards, non-attached cells were removed by washing cells with pre-heated Tyrode solution (137 mM NaCl, 5.4 mM KCl, 3 mM sodium pyruvate, 5 mM HEPES, 0.57 mM MgCl2, 0.33 mM NaH2PO4, 1.0 mM CaCl2 and 5.6 mM glucose, pH 7.4 at 37 °C). Contractility measurements were performed at 37 °C using the Multi-Cell system (CytoCypher, the Netherlands). Cells were treated to vehicle (DMSO), 15 nM isoproterenol alone or in combination with 1 μM of propranolol or Opto-prop-2 (either with or without prior illumination). […]
Changes in sarcomere length were recorded with a high-speed camera and Ionoptix software (Ionoptix, Westwood MA, USA). The contractility profiles were analyzed with the automated, batch analysis software ‘Transient Analysis Tools’ (CytoCypher, Amsterdam, NL). […]

β2-AR [9] = target: T2, β2-AR; experiment: Conformational β2-AR BRET sensor in HEK293A cells
Target sequence in this assay (P07550 1-369): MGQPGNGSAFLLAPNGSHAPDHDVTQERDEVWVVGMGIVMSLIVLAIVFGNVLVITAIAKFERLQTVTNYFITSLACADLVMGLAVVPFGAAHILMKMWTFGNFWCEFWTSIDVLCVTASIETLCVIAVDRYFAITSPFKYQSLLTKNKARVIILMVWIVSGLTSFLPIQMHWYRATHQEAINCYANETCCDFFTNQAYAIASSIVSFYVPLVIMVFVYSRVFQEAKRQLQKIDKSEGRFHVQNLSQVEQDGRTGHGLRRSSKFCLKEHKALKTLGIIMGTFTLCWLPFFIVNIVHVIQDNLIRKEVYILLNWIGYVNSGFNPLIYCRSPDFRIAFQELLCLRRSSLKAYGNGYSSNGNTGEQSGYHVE
Experimental: The next day, cells were washed with HBSS and incubated with a 1/1000 stock solution of furimazine. […] Wells pre-incubated with 0.1% DMSO/HBSS control were treated with vehicle control.
Raw BRET ratios were defined as acceptor emission/donor emission.
Antagonist pKB values were calculated using the agonist potency and concentration together with the antagonist IC50 values, using the Cheng-Prusoff equation.

[10] = pKi PSScis, β1-AR, illuminated to PSScis (360 nm) before experiment
[11] = pKi trans, β1-AR, without prior illumination (trans-isomer)
[12] = pKi PSScis, illuminated to PSScis (360 nm) before experiment
[13] = pKi trans, without prior illumination (trans-isomer)

T1 sequence (P08588 whole entry): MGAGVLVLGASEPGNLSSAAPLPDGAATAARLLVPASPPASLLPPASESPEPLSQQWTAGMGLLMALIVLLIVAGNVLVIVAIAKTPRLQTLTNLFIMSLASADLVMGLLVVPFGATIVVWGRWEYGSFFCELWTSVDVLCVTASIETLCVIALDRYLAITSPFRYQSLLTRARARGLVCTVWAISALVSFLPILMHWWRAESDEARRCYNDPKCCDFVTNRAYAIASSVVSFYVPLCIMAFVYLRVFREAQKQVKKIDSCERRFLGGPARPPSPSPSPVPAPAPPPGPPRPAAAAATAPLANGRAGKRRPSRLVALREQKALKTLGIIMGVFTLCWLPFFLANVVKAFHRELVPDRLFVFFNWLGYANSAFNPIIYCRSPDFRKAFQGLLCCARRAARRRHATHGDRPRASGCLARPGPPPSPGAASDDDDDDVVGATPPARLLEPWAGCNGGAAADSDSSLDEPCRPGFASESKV

λmax cis [1]: 423 nm
λmax trans [1]: 321 nm
PSScis (% cis-isomer) [2]: 88.9 ± 1.0 % cis-isomer
PSStrans (% cis-isomer) [2]: 28.8 ± 0.3 % cis-isomer
t1/2 20°C (thermal relaxation of cis-isomer) [3]: >240 h
Ki (β1-AR [4]; Ki at β1-AR, trans-isomer): < 13 nM
fold Ki trans vs PSScis at β1-AR (β1-AR [4]): 9 fold and 9.4 fold
Active state at β1-AR (β1-AR [4]): trans
Ki (β1-AR [4]; [10]): 79.4 nM
Ki (β1-AR [4]; [11]): 7.94 nM
selectivity β2-AR over β1-AR (β2-AR [5]; both isomers): ≥ 10 fold
fold Ki trans vs PSScis at β2-AR (β2-AR [5]): 4 fold and 4.3 fold
Active state at β2-AR (β2-AR [5]): trans
Ki (β2-AR [5]; [12]): 3.16 nM
Ki (β2-AR [5]; [13]): 0.794 nM
Structure (SMILES): CC(C)NCC(O)COc1ccccc1/N=N/c1ccccc1 (stereo not drawn) [Opto-prop-1]

λmax cis [1]: 429 nm
λmax trans [1]: 347 nm
PSScis (% cis-isomer) [2]: 93.8 ± 0.6 % cis-isomer
PSStrans (% cis-isomer) [2]: 21.5 ± 0.1 % cis-isomer
trans-content at PSStrans ([2]; 434 nm): 78.5%
t1/2 20°C (thermal relaxation of cis-isomer) [3]: >240 h
Ki (β1-AR [4]; Ki at β1-AR, trans-isomer): < 13 nM
selectivity β1-AR over β2-AR (β1-AR [4]; both isomers): ≥ 10 fold
fold Ki trans vs PSScis at β1-AR (β1-AR [4]): 18 fold
Active state at β1-AR (β1-AR [4]): trans
Ki (β1-AR [4]; [10]): 200 nM
Ki (β1-AR [4]; [11]): 12.6 nM
fold Ki trans vs PSScis at β2-AR (β2-AR [5]): 2.6 fold
Active state at β2-AR (β2-AR [5]): cis
Ki (β2-AR [5]; [12]): 3980 nM
Ki (β2-AR [5]; [13]): 10000 nM
Structure (SMILES): CC(C)NCC(O)COc1ccc(/N=N/c2ccccc2)cc1 (stereo not drawn) [Opto-prop-3]

Bmax, β1-AR membranes (β1-AR [6]): 56 ± 16 pmol/mg
Bmax, β2-AR membranes (β2-AR [7]): 33 ± 19 pmol/mg
Structure (SMILES): CCCc1ccccc1OCC(O)CNC(C)C (stereo not drawn) [[3H]dihydroalprenolol, dihydroalprenolol]

selectivity in binding β2-AR over β1-AR (β2-AR [5]): 21 fold
Structure (SMILES): CC(C)NCC(O)COc1ccccc1/N=N\c1ccccc1 (stereo not drawn) [cis-Opto-prop-1]

increase in β2-AR affinity upon 360 nm illumination (β2-AR [5]; cis vs trans): ~3 log-units
selectivity in binding β2-AR over β1-AR (β2-AR [5]): 78 fold
Structure (SMILES): CC(C)NCC(O)COc1cccc(/N=N\c2ccccc2)c1 (stereo not drawn) [cis-Opto-prop-2]
effect on isoprenaline-enhanced contractility [8]: attenuated

Structure (SMILES): CC(C)NCC(O)c1ccc(O)c(O)c1 (stereo not drawn) [isoprenaline, reference compound]
effect on sarcomere shortening ([8]; 15 nM): further increased the shortening of the sarcomeres

IC50 (β2-AR [9]): 1000 nM
fold Ki trans vs PSScis at β2-AR (β2-AR [5]): 587 fold
Structure (SMILES): CC(C)NCC(O)COc1cccc(/N=N/c2ccccc2)c1 (stereo not drawn) [trans-Opto-prop-2]
effect on isoprenaline-enhanced contractility [8]: not

selectivity in binding affinity β1-AR over β2-AR (β1-AR [4]; trans-isomer): 813 fold
Structure (SMILES): CC(C)NCC(O)COc1ccc(/N=N/c2ccccc2)cc1 (stereo not drawn) [trans-Opto-prop-3]
